The record followed here is publication PMC4203866, “Identification of plant-derived natural products as potential inhibitors of the Mycobacterium tuberculosis proteasome” (BMC Complementary and Alternative Medicine, 2014).

For this assay, the target named is T1, Mtb proteasome (Mycobacterium tuberculosis, UniProt P9WHT9).
T1 construct: Proteasome activity of the supernatants was assessed; endogenous in cells; host or cells: Mycobacterium tuberculosis H37Ra (crude lysate supernatant)
Nature of the assay: biochemical. Conditions: for inhibition at 200 µM: 0.5 h.

The mark [1] stands for this setting: read-out: IA: inhibitory activity of Mtb proteasome.

Each structure is given as a SMILES string. Structures can show the parent of a compound that is named as a salt. Where a SMILES comes first, the peptide text is derived from it. The star is where a group is joined. Cbz = O=C(OCc1ccccc1)*

T1 sequence (P9WHT9 58-291): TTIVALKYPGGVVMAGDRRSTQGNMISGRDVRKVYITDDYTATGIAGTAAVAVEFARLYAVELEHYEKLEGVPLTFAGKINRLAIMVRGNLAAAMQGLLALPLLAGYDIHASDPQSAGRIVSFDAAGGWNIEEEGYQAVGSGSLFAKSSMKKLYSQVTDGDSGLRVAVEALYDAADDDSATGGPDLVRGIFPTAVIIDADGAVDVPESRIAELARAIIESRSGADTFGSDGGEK
T1 sequence (P9WHU1 whole entry partner): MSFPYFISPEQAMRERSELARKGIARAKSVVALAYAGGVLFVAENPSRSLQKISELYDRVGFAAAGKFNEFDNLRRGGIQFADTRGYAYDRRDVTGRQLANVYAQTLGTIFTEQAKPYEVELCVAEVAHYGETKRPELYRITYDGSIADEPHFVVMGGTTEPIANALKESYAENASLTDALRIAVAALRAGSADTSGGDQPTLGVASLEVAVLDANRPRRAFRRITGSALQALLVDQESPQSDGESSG

On to `O=C1c2cccc(O)c2C(=O)c2c(O)cccc21` [1,8-dihydroxyanthraquinone], for which the inhibition at 200 µM under setting [1] worked out at 36.3%.

What is called IC50 is the concentration needed to halve the response being measured. Higher therefore signals weaker potency. For `CC(C)C[C@@H](C=O)NC(=O)[C@H](CC(C)C)NC(=O)[C@H](CC(C)C)NC(=O)OCc1ccccc1` [MG132, reference compound] (Cbz-Leu-Leu-Leu-aldehyde), the half-inhibitory concentration (IC50) was 28 µM. Also, under setting [1], the inhibition at 100 µM amounted to 79.7%.

For the compound `C=C1C(=O)O[C@@H]2C[C@@]3(C)CCC[C@H](C)C3=C[C@H]12` [alantolactone], the “IA: inhibitory activity of Mtb proteasome” value (from here on “IA: inhibitory activity”) is listed as 32.12%.

For `O=C1c2ccccc2C(=O)c2c1ccc(O)c2O` [alizarin], the inhibition at 200 µM under setting [1] was 0%.

On to `CC(C)=CC[C@H](O)C1=CC(=O)c2c(O)ccc(O)c2C1=O` [alkannin], for which the inhibition at 200 µM under setting [1] was 52.4%.

For `O=C1c2cccc(O)c2C(=O)c2c(O)cc(CO)cc21` [aloe-emodin], under setting [1], the inhibition at 200 µM stood at 34.3%.

Regarding `COc1c(O)cc2oc3cc(O)c(CC=C(C)C)c(O)c3c(=O)c2c1CC=C(C)C` [alpha mangostin], the “IA: inhibitory activity” value is 64.16%.

Take `N#C[C@H](O[C@@H]1O[C@H](CO[C@@H]2O[C@H](CO)[C@@H](O)[C@H](O)[C@H]2O)[C@@H](O)[C@H](O)[C@H]1O)c1ccccc1` [amygdalin]: the inhibition at 200 µM under setting [1] is 1.87%.

On to `C=C1CC[C@@H]2[C@](C)(CO)[C@H](O)CC[C@@]2(C)[C@@H]1C/C=C1/C(=O)OC[C@H]1O` [andrographolide], for which the inhibition at 200 µM under setting [1] was 0%.

Regarding `O=c1cc(-c2ccc(O)cc2)oc2cc(O)cc(O)c12` [apigenin], under setting [1], the inhibition at 200 µM is 0%.

Take `COc1cc(C[C@H]2C(=O)OC[C@@H]2Cc2ccc(OC)c(OC)c2)ccc1O` [arctigenin]: under setting [1], the inhibition at 200 µM is 27.1%.

On to `C[C@H]1[C@H](OC(=O)CCC(=O)O)O[C@@H]2O[C@@]3(C)CC[C@H]4[C@H](C)CC[C@@H]1[C@@]24OO3` [artesunate, reference compound], for which the inhibition at 200 µM under setting [1] was found to be 13.8%.

For the compound `CC(C)(O)[C@H]1CC[C@@](C)([C@H]2[C@@H](O)C[C@@]3(C)[C@@H]4C[C@H](O[C@@H]5O[C@H](CO)[C@@H](O)[C@H](O)[C@H]5O)[C@H]5C(C)(C)[C@@H](O[C@@H]6OC[C@@H](O)[C@H](O)[C@H]6O)CC[C@@]56C[C@@]46CC[C@]23C)O1` [astragaloside A], the “IA: inhibitory activity” value is 23.59%.

Compound `O=c1cc(-c2ccccc2)oc2cc(O)c(O)c(O)c12` [baicalein] came in with a concentration for half-maximal inhibition (IC50) of 45.7 µM. Further, under setting [1], the inhibition at 200 µM was over 65%.

For the compound `O=C(O)[C@H]1O[C@@H](Oc2cc3oc(-c4ccccc4)cc(=O)c3c(O)c2O)[C@H](O)[C@@H](O)[C@@H]1O` [baicalin], the IC50 amounted to 83.5 µM. Besides, the inhibition at 200 µM under setting [1] is over 65%.

Take `COc1ccc2cc3[n+](cc2c1OC)CCc1cc2c(cc1-3)OCO2` [berberine]: the inhibition at 200 µM under setting [1] was determined as 0%.

For the compound `COc1c(O)cc2c(c1O)[C@@H]1O[C@H](CO)[C@@H](O)[C@H](O)[C@H]1OC2=O` [bergenin], the inhibition at 200 µM under setting [1] was 3.67%.

In the case of `C=C(C)[C@@H]1CC[C@]2(CO)CC[C@]3(C)[C@H](CC[C@@H]4[C@@]5(C)CC[C@H](O)C(C)(C)[C@@H]5CC[C@]43C)[C@@H]12` [betulinol], the “IA: inhibitory activity” value is reported as 6.52%.

On to `CC(C)(C)[C@]1(O)CC2OC(=O)CC23C(=O)OC2OC(=O)[C@H](O)C231` (stereo partly drawn) [bilobalide], for which, under setting [1], the inhibition at 200 µM came to 18.6%.

As to `CC[C@@]1(O)C(=O)OCc2c1cc1n(c2=O)Cc2cc3ccccc3nc2-1` [camptothecin], the inhibition at 200 µM under setting [1] was found to be 0%.

For `COc1ccc2cc1Oc1ccc(cc1)C[C@H]1c3c(cc4c(c3Oc3cc5c(cc3OC)CCN(C)[C@@H]5C2)OCO4)CCN1C` [cepharanthine], the inhibition at 200 µM under setting [1] was 0%.

On to `O=C(/C=C/c1ccc(O)c(O)c1)O[C@@H]1C[C@](O)(C(=O)O)C[C@@H](O)[C@H]1O` [chlorogenic acid], for which, under setting [1], the inhibition at 200 µM stood at 0%.

As for `Nc1ncnc2c1ncn2[C@@H]1O[C@H](CO)C[C@H]1O` [cordycepin], the inhibition at 200 µM under setting [1] is 7.77%.

For the compound `C=C1C(=O)O[C@@H]2/C=C(\C)CC/C=C(\C)CC[C@@H]12` [costunolide], the inhibition at 200 µM under setting [1] was determined as 41.8%.

As for `O=c1ccc2ccccc2o1` [coumarin], the inhibition at 200 µM under setting [1] is 0%.

As to `COc1cc(/C=C/C(=O)CC(=O)/C=C/c2ccc(O)c(OC)c2)ccc1O` [curcumin], under setting [1], the inhibition at 200 µM is over 65%.

Consider `C=C1C[C@@]2(O)O[C@@]3(C[C@H]2C(C)C)[C@@H](C)CC[C@@H]13` [curcumol], for which the “IA: inhibitory activity” value is 34.66%.

Regarding `O=c1c(-c2ccc(O)cc2)coc2cc(O)ccc12` [daidzein], under setting [1], the inhibition at 200 µM was determined as 0%.

Turning to `O=c1ccc2ccc(O)c(O)c2o1` [daphnetin], the inhibition at 200 µM under setting [1] stood at 0%.

As for `C=C1CC[C@@H]2[C@](C)(CO)[C@H](O)CC[C@@]2(C)[C@@H]1/C=C/C1=CCOC1=O` [dehydroandrographolide], the “IA: inhibitory activity” value turned out to be 32.67%.

For the compound `C=C1CC[C@H]2C(=C)CC[C@H]3C(=C)C(=O)O[C@@H]3[C@@H]12` [dehydrocostuslactone], the inhibition at 200 µM under setting [1] came to 32.1%.

On to `COc1cc2c(c(OC)c1OC)-c1c(cc(OC)c(OC)c1OC)C[C@H](C)[C@H](C)C2` [deoxyschizandrin], for which the “IA: inhibitory activity” value is listed as 23.86%.

Take `COc1cc(C)c(C(=O)Oc2cc(C)c(C(=O)O)c(O)c2C)c(OC)c1C` [diffractic acid]: the “IA: inhibitory activity” value is recorded as 0.00%.

Regarding `C[C@@H]1CC[C@@]2(OC1)O[C@H]1C[C@H]3[C@@H]4CC=C5C[C@@H](O)CC[C@]5(C)[C@H]4CC[C@]3(C)[C@H]1[C@@H]2C` [diosgenin], the inhibition at 200 µM under setting [1] was 0%.

`COc1ccc(-c2cc(=O)c3c(O)cc(O)cc3o2)cc1O` [diosmetin]: the inhibition at 200 µM under setting [1] came out at 0%.

`Cc1cc(O)c2c(c1)C(=O)c1cc(O)cc(O)c1C2=O` [emodin] had an IC50 of 81.1 µM. Besides, the inhibition at 200 µM under setting [1] was over 65%.

In the case of `O=C(O[C@@H]1Cc2c(O)cc(O)cc2O[C@@H]1c1cc(O)c(O)c(O)c1)c1cc(O)c(O)c(O)c1` [epigallocatechin gallate], the “IA: inhibitory activity” value turned out to be 45.21%.

Consider `COc1ccc([C@H]2OC[C@H]3[C@@H]2CO[C@H]3c2ccc(O[C@@H]3O[C@H](CO)[C@@H](O)[C@H](O)[C@H]3O)c(OC)c2)cc1OC` [forsythin], for which the “IA: inhibitory activity” value is 20.02%.

As to `COc1cc2ccc(=O)oc2c(O[C@@H]2O[C@H](CO)[C@@H](O)[C@H](O)[C@H]2O)c1O` [fraxin], the “IA: inhibitory activity” value turned out to be 0.00%.

In the case of `O=c1oc2c(O)c(O)cc3c(=O)oc4c(O)c(O)cc1c4c23` [gallogen], the “IA: inhibitory activity” value is reported as 62.50%.

In the case of `COC(=O)C1=CO[C@@H](O[C@@H]2O[C@H](CO)[C@@H](O)[C@H](O)[C@H]2O)[C@@H]2C(CO)=CC[C@H]12` [geniposide], the inhibition at 200 µM under setting [1] turned out to be 0%.

`O=c1c(-c2ccc(O)cc2)coc2cc(O)cc(O)c12` [genistein]: the inhibition at 200 µM under setting [1] turned out to be 45.7%.

Consider `C=C[C@@H]1C2=CCOC(=O)C2=CO[C@H]1O[C@@H]1O[C@H](CO)[C@@H](O)[C@H](O)[C@H]1O` [gentiopicroside], for which, under setting [1], the inhibition at 200 µM was found to be 0%.

Consider `CC1(C)[C@@H](O)CC[C@]2(C)[C@H]3C(=O)C=C4[C@@H]5C[C@@](C)(C(=O)O)CC[C@]5(C)CC[C@@]4(C)[C@]3(C)CC[C@@H]12` [glycyrrhetinic Acid], for which, under setting [1], the inhibition at 200 µM stood at 0%.

Turning to `COc1ccc2cc1Oc1ccc(cc1)C[C@H]1c3cc(c(OC)cc3CCN1C)Oc1c(OC)c(OC)cc3c1[C@H](C2)N(C)CC3` [hanfangchin A], the “IA: inhibitory activity” value was found to be 0.00%.

Consider `COc1ccc2cc1Oc1ccc(cc1)C[C@H]1c3cc(c(OC)cc3CCN1C)Oc1c(O)c(OC)cc3c1[C@H](C2)N(C)CC3` [hanfangchin B], for which the “IA: inhibitory activity” value stood at 0.00%.

Consider `CC(=O)OC(C)(C)CCC(=O)[C@](C)(O)[C@H]1[C@H](O)C[C@@]2(C)[C@@H]3CC=C4[C@@H](C[C@H](O)[C@@H](O)C4(C)C)[C@]3(C)C(=O)C[C@]12C` [hemslecin A], for which the inhibition at 200 µM under setting [1] stood at 0%.

With `COc1c(O)cc2oc(-c3ccc(O)cc3)cc(=O)c2c1O` [hispidulin], the IC50 stood at 58.3 µM. In addition, under setting [1], the inhibition at 200 µM is over 65%.

Consider `COc1ccc(-c2oc3c(CC=C(C)C)c(O[C@@H]4O[C@H](CO)[C@@H](O)[C@H](O)[C@H]4O)cc(O)c3c(=O)c2O[C@@H]2O[C@@H](C)[C@H](O)[C@@H](O)[C@H]2O)cc1` [icarrin, icariin], for which 88.7 µM corresponded to half-maximal inhibition (IC50). Also, under setting [1], the inhibition at 200 µM was over 65%.

With `CC(C)=CCOc1c2occc2cc2ccc(=O)oc12` [imperatorin], the inhibition at 200 µM under setting [1] was found to be 15.9%.

In the case of `O=C1Nc2ccccc2/C1=C1/Nc2ccccc2C1=O` [indirubin], the inhibition at 200 µM under setting [1] stood at 46%.

In the case of `O=C(/C=C/c1ccc(O)cc1)c1ccc(O)cc1O` [isoliquiritigenin], the half-maximal inhibitory concentration (IC50) worked out at 63.9 µM. Further, the inhibition at 200 µM under setting [1] is over 65%.

Regarding `O=c1c(O)c(-c2ccc(O)cc2)oc2cc(O)cc(O)c12` [kaempferol], half-maximal inhibition (IC50) required 107 µM. Under setting [1], the inhibition at 200 µM was over 65%.

As for `CC1(C)O[C@H]2CC(=O)OC[C@]23[C@H]2CC[C@@]4(C)[C@H](c5ccoc5)OC(=O)[C@H]5O[C@]54[C@]2(C)C(=O)C[C@@H]13` [limonin], the inhibition at 200 µM under setting [1] amounted to 1.61%.

As for `O=c1cc(-c2ccc(O)c(O)c2)oc2cc(O)cc(O)c12` [luteolin], the inhibition at 200 µM under setting [1] is 0%.

For the compound `O[C@H]1[C@H]2c3cc4c(cc3CN3CCC(=C[C@@H]1O)[C@H]23)OCO4` [lycorine hydrochloride], the inhibition at 200 µM under setting [1] turned out to be 0%.

Regarding `C=CCc1ccc(O)c(-c2cc(CC=C)ccc2O)c1` [magnolol], the inhibition at 200 µM under setting [1] stood at 0%.

With `O=c1c2cc(O)c(O)cc2oc2cc(O)c([C@@H]3O[C@H](CO)[C@@H](O)[C@H](O)[C@H]3O)c(O)c12` [mangiferin], the inhibition at 200 µM under setting [1] was found to be 31.9%.

With `O=C1CCC[C@@H]2[C@H]3CCCN4CCC[C@@H](CN12)[C@@H]34` [matrine], under setting [1], the inhibition at 200 µM turned out to be 23.5%.

Take `O=c1c(O)c(-c2cc(O)c(O)c(O)c2)oc2cc(O)cc(O)c12` [myricetin]: half-maximal inhibition (IC50) was put at 55.4 µM. Moreover, the inhibition at 200 µM under setting [1] is over 65%.
